Results on two compounds are retold here after patent US20090124680A1, “USE OF PRODRUG COMPOSITION CONTAINING NAPHTHOQUINONE-BASED COMPOUND FOR MANUFACTURE OF MEDICAMENT FOR TREATMENT OR PREVENTION OF DISEASES INVOLVING METABOLIC SYNDROME” (Mazence Inc., priority 2007, published 2009).

Assay [1] in a line: Weight loss effects in obese mice: body weight, body weight gain and food intake. Type of assay: in vivo, C57BL/6 male mice. The note with it: high-fat diet mice; oral, 28 days; Example 14 195 mg/kg, Example 5 65 mg/kg; compared to control group; FIGS. 1 and 2. As for the experimental part: (§1) 4-week-old C57BL/6 male mice were purchased from Orient BIO Inc. (Korea). Animals were raised for 10 weeks in a breeding room maintained at a temperature of 23° C., 55% humidity, illumination of 300 to 500 lux, a 12-h light/dark (L/D) cycle, and ventilation of 10 to 18 times/hr. Experiments included animals weighing […] or higher. Animals were fed ad libitum a high-fat diet (45 kcal % from fat, D12451, Research Diet) and tap water as drinking water.
(§2) Each group of animals was administered 195 mg/kg of the prodrug compound of Example 14 (hereinafter often simply referred to as “A31”) and 65 mg/kg of the prodrug compound of Example 5 (hereinafter often simply referred to as “A32”) for 4 weeks, as set forth in Table 1 below. Observations were made on changes in body weight and food intake, with respect to a time course of administration. After administration was complete, biochemical indices were assayed including changes in adipose tissue distribution, hepatic functions, and lipid and enzyme levels.

Assay [2] is described as follows: Biochemical indices in the blood of C57BL/6 mice after administration. Type of assay: in vivo. The note with it: oral, 28 days; Example 14 195 mg/kg, Example 5 65 mg/kg; compared to control group; FIG. 4. As for the experimental part:
as §1, §2
FIGS. 4 and 5 show changes of biochemical indices in the blood of C57BL/6 mice to which the prodrug composition of Example 5 and the prodrug composition of Example 14 were administered.

Regarding “10,11-diacetoxy-2,6,6-trimethyl-1,2,6,7,8,9-hexahydro-phenanthro[1,2b]furan [Example 14]”, in assay [1], the “body weight (g)” value was “significant reductions” and the “body weight gain (%)” value was “significant reductions”. For the same compound, in assay [2], the “blood levels of GOT/GTP enzymes” value is “decreased”.

For the compound `CC(=O)Oc1c2c(c3ccccc3c1OC(C)=O)OC(C)(C)CC2` [Example 5, 5,6-diacetoxy-2,2-dimethyl-3,4-dihydro-2H-benzo[h]chromene], in assay [1], the “body weight (g)” value is “excellent weight-loss effects” and the “body weight gain (%)” value is “negative (−) value”. In addition, the “blood levels of GOT/GTP enzymes” value in assay [2] is “decreased”.
